Laboratory results as given in patent publication US20260294906A1, “TREATING PSORIASIS USING A SMALL MOLECULE INHIBITOR OF TUMOR NECROSIS FACTOR ALPHA” (SANOFI, priority 2023, published 2026).
Where “and” joins values, the source holds several entries; their conditions need not be identical. Identical values can stand only once. Entries after “also recorded” stand apart in the source; their conditions may differ.

Tests used:
Type in all cases: in vivo, human
[1] = test system: patients with mild to moderate psoriasis; assay: Clinical response by Psoriasis Area and Severity Index (PASI) score, phase 1 placebo-controlled study; conditions: for LSm (±SE) % improvement from baseline in total PASI score: 200 mg BID oral, fed; for LSm (±SE) % improvement from baseline in total PASI score / ΔLSm (±SE) (Compound 1 minus placebo) in % improvement from baseline in total PASI score: MMRM
Description: (§1) A double-blind, randomized, placebo-controlled phase 1 study was carried out in participants with mild to moderate psoriasis. Study participants were randomized to 200 mg twice a day (BID) of Compound 1 or placebo in 2:1 ratio (approximately 24 in the treatment group and 12 in the placebo group). The study comprised an up to 4-week screening period, and a 4-week treatment period with Compound 1 or placebo. An end-of-study visit was carried out 10±3 days after the last investigational medicinal product (IMP) administration.
(§2) The primary objective of the study was to assess the safety, tolerability, and clinical efficacy of Compound 1 at 200 mg BID via oral administration. Also evaluated was the clinical effect of Compound 1 as compared to placebo on the percent change in PASI and TLS scores from baseline to week 2 and week 4. The percent change in PASI score from baseline to week 4 was determined. TLS score was also assessed over the same time period. Also assessed was the effect of Compound 1 on biomarkers of psoriasis. Blood samples collected at predetermined time points were processed to quantify serum levels of biomarkers, including interleukin (IL)-17A, IL-17F, and IL-22 by high sensitivity methods. IL-17A, IL-17F and IL-22 are the main cytokines released by Th17 cells. Plasma levels of Compound 1 were measured to assess pharmacokinetics in the study population.
(§3) Two study interventions were used, Compound 1 and placebo. The Compound 1 intervention comprised 4× tablets of Compound 1 50 mg twice daily, i.e. 200 mg BID, for 4 weeks. The placebo intervention was 4× tablets of placebo twice daily for 4 weeks. Tablets were administered orally.
(§4) The interventions were used in two arms of the study. Arm 1 was the experimental arm and it involved participants receiving 200 mg of Compound BID for 4 weeks under fed conditions. Arm 2 was the placebo arm and it involved participants receiving the matching placebo tablets for 4 weeks under fed conditions.
The PASI scoring system evaluates psoriasis based on the body surface area (BSA) involvement and morphological characteristics of the plaques (see, e.g., EMA Guidelines on clinical investigation of medicinal products indicated for the treatment of psoriasis, Nov. 18, 2004). BSA estimation was performed using the ‘palm’ (i.e., the subject's flat hand and thumb together, fingers not included). The palm thus defined represented 1% of the total BSA. The PASI combines assessments of four body areas: head (h, 10%), upper extremities (u, 20%), trunk (t, 30%) and lower extremities (1, 40%). Using the palm to assess BSA (as described above) the proportion of skin affected by psoriasis in each area was given a numerical score (A) representing the proportion involved: 1 (0 to 9%); 2 (10 to 29%); 3 (30 to 49%); 4 (50 to 69%); 5 (70 to 89%) and 6 (90 to 100%). Within each area the severity of three signs, erythema (E), thickness/induration (I), and desquamation/scaling (D), was each assessed on a five-point scale: 0, none; 1, mild; 2, moderate; 3, severe; 4, very severe. The PASI ranges from 0 to 72 and is calculated using the following formula: […]
The PASI score was assessed at baseline, 2 weeks and 4 weeks. Table 4 below presents the LSm (±SE) for each treatment and ΔLSm (Compound 1 minus placebo) with 90% confidence interval (CI) in percentage improvement from baseline in the total PASI score at week 2 and week 4.
The results in Table 4 were obtained using the MMRM.
Table 5 below presents the mean (±SEM) percentage improvements from baseline in the total PASI score at week 2 and week 4 in the patient population with PASI<10 (mild) or PASI≥[…] at baseline.
The results in Table 5 come from standard descriptive analysis, ^(1)N=3, ^(2)N=15.

IL-17F = assay: Serum levels of biomarker IL-17F (single molecule counting sandwich immunoassay)
Description: as §2, §3
Blood samples were processed for analysis of IL-17A, IL-17F and IL-22 in serum samples by high sensitivity methods. Samples were collected according to the schedule of activity described above.
As indicated above, peripheral blood samples collected at predetermined time points were processed to quantify serum levels of biomarkers of psoriasis including IL-17A, IL-17F, and IL-22. Levels of IL-17A and IL-17F were quantified using a single molecule counting sandwich immunoassay (SMCxPro™, Millipore—see also Hwang et al., Methods (2019) 158:69-76). Levels of IL-22 were quantified using a single-molecule array ELISA (SIMOA™, Myriad RBM—see also Rissin et al., Anal Chem (2011) 83(6):2279-2285). Statistical analysis was based on geometric mean ratio to baseline; a two-sample t-test at significance alpha level of 5% was used for calculation of the p-values.

[2] = test system: patients with mild to moderate psoriasis; assay: Clinical response by Target Lesion Severity (TLS) score, phase 1 placebo-controlled study; conditions: for Mean (±SEM) % improvement from baseline in TLS score / ΔLSm (±SE) (Compound 1 minus placebo) in % improvement from baseline in TLS score: 200 mg BID; for LSm (±SE) % improvement from baseline in TLS score: 200 mg BID oral, fed, average of 2 lesions; for LSm (±SE) % improvement from baseline in TLS score / ΔLSm (±SE) (Compound 1 minus placebo) in % improvement from baseline in TLS score: MMRM
Description: as §1, §2, §3, §4
TLS score, which is a validated tool for psoriasis severity assessment, was used to evaluate severity and to assess clinical efficacy. It consists of a sum score of 3 clinical severity parameters (scaling, erythema, plaque elevation/induration; each graded on a 5-point severity scale; 0=clear, 1=slight, 2=mild, 3=moderate, and 4=severe) with a sum score ranging between 0 and 12 points (see, e.g., Czamowicki et al., J Am Acad Dermatol. (2014) 71(5):954-959.e1). The following assessment was used, in which TLS score was calculated as the sum of A+B+C (adapted from Fredriksson et al., Dermatologica (1978) 157(4):238-244):
The TLS score was assessed at baseline, 2 weeks and 4 weeks. Table 2 below presents the Least Square means (LSm)±Standard Error (SE) for each treatment and the Least Squares means difference (ΔLSm; Compound 1 minus placebo)±Standard Error (SE) with 90% confidence interval (CI) in percentage improvement from baseline in the TLS score (calculated as the average of the TLS score values collected from 2 lesions) at week 2 and week 4.
The results in Table 2 were obtained using the Mixed Model for Repeated Measures (MMRM).
Table 3 below presents the mean (±SEM) percentage improvement from baseline in the TLS score (calculated as the average of the TLS score values collected from 2 lesions) at week 2 and week 4 in the patient population with PASI<10 (mild) or PASI≥10 (moderate) at baseline.
The results in Table 3 come from standard descriptive analysis, ^(1)N=3, ^(2)N=15

For `CN1C(=O)c2cccc(OC(F)F)c2[C@H]2C[C@@H]1c1nc3ccc(-c4cnc(C5(N)CCC5)nc4)cc3n12` [Compound 1, (7R,14R)-11-[2-(1-aminocyclobutyl)pyrimidin-5-yl]-1-(difluoromethoxy)-6-methyl-6,7-dihydro-7,14-methanobenzimidazo[1,2-b][2,5]benzodiazocin-5(14H)-one], the “Mean (±SEM) % improvement from baseline in total PASI score” value ([1]; PASI < 10 (mild) population, week 2, 200 mg BID, N = 16, SEM 3.98) was 21.24% and 21.2%, the “Mean (±SEM) % improvement from baseline in total PASI score” value ([1]; PASI < 10 (mild) population, week 4, 200 mg BID, N = 15, SEM 5.34) was 33.8% and 33.83% and the “Mean (±SEM) % improvement from baseline in total PASI score” value ([1]; PASI ≥ 10 (moderate) population, week 2, 200 mg BID, N = 9) was 9.3% and 9.31% and 9.3 (3.60) %. For the same compound, the “Mean (±SEM) % improvement from baseline in total PASI score” value ([1]; PASI ≥ 10 (moderate) population, week 4, 200 mg BID, N = 9) was 33.2% and 33.19% and 33.2 (4.03) %, the “improvement in PASI score (in words)” value ([1]; after 4 weeks of treatment) was “clinically meaningful” and the “improvement in psoriasis severity / clinical efficacy (in words)” value ([1]; compared to placebo, 4-week treatment, 200 mg BID) was “rapid and statistically significant improvement in psoriasis severity compared to placebo as early as week 2; also recorded: consistent clinical efficacy in a 4-week treatment period; also recorded: clinically effective, with sustained clinical response; also recorded: effective in improving clinical parameters in human patients”. The “LSm (±SE) % improvement from baseline in total PASI score” value ([1]; week 2, vs placebo 4.12%, p=0.005) was 17.73% and 17.73 (2.75) %, the “ΔLSm (±SE) (Compound 1 minus placebo) in % improvement from baseline in total PASI score” value ([1]; week 2, 200 mg BID, 90% CI 5.28 to 21.94) was 13.61% and 13.61 (4.92) % and the “LSm (±SE) % improvement from baseline in total PASI score” value ([1]; week 4, vs placebo 15.71%, p=0.009) was 35.09% and 35.09 (4.47) %. The “ΔLSm (±SE) (Compound 1 minus placebo) in % improvement from baseline in total PASI score” value ([1]; week 4, 200 mg BID, 90% CI 6.28 to 32.48) was 19.4% and 19.38% and 19.38 (7.75) %, the “mean reduction in total PASI score from baseline” value ([1]; week 4, FIG. 2, placebo around 1.25 points) was “around 3.0 points” and the “Serum level of IL-17F (in words)” value (IL-17F; after treatment for 4 weeks) was “substantially decreased”. For the same compound, the “Serum level of IL-17F, geometric mean (geometric SE)” value (shortened to “Serum level … (geometric SE)”) (IL-17F; baseline (before treatment)) was 2.63 (1.19) pg/mL, the “Serum level … (geometric SE)” value (IL-17F; week 2, 200 mg BID) was 1.65 (1.21) pg/mL and the “Serum level … (geometric SE)” value (IL-17F; week 4, 200 mg BID) was 1.35 (1.21) pg/mL. For the same compound, the “Mean (±SEM) % improvement from baseline in TLS score” value ([2]; PASI < 10 (mild) population, week 2, N = 16, SEM 3.61) was 20.9%, the “Mean (±SEM) % improvement from baseline in TLS score” value ([2]; PASI < 10 (mild) population, week 4, N = 15, SEM 6.32) was 37.0% and the “Mean (±SEM) % improvement from baseline in TLS score” value ([2]; PASI ≥ 10 (moderate) population, week 2, N = 9) was 10.9% and 10.9 (6.20) %. For the same compound, the “Mean (±SEM) % improvement from baseline in TLS score” value ([2]; PASI ≥ 10 (moderate) population, week 4, N = 9) was 39.7% and 39.7 (4.03) %, the “LSm (±SE) % improvement from baseline in TLS score” value ([2]; week 2, vs placebo 6.29%, p=0.032) was 17.06% and 17.06 (3.13) % and the “ΔLSm (±SE) (Compound 1 minus placebo) in % improvement from baseline in TLS score” value ([2]; week 2, 90% CI 1.29 to 20.26) was 10.77% and 10.77 (5.61) %. The “LSm (±SE) % improvement from baseline in TLS score” value ([2]; week 4, vs placebo 20.44%, p=0.012) was 38.18% and 38.18 (4.33) %, the “ΔLSm (±SE) (Compound 1 minus placebo) in % improvement from baseline in TLS score” value ([2]; week 4, 90% CI 4.98 to 30.49) was 17.7% and 17.74% and 17.74 (7.54) % and the “mean reduction in TLS score from baseline” value ([2]; week 4, FIG. 1, placebo around 1.25 points) was “around 2.5 points”.
